Test results published in patent publication US10457707B2, “Substituted urea depsipeptide analogs as activators of the CLPP endopeptidase” (priority 2015, dated 2019).
Values after ≈ are worked out from the molar mass of the structure shown. Where two headings read alike, the source gives them in different places. *1 amine or outer side, *2 acyl side, *3 side chain or, on linkers, in order; H or OH if unused. Where a SMILES comes first, the peptide text is derived from it. Bridges are numbered along the chain shown (N, C = ends). [ ]: non-standard residue; d: D form. The star is where a group is joined. Phe(3,5-F2) = N[C@@H](Cc1cc(F)cc(F)c1)C(=O)O; NMepT = CN[C@H](C(=O)O)[C@@H](C)OP(=O)(O)O; NH(4-OCF3-phenyl) = FC(F)(F)Oc1ccc(N*)cc1; Morpholine(3S-CO) = O=C(O)[C@@H]1COCCN1; Pro(4S-Me) = C[C@@H]1CN[C@H](C(=O)O)C1; Pro(4R-Me) = C[C@H]1CN[C@H](C(=O)O)C1; Hyp = O=C(O)[C@@H]1C[C@@H](O)CN1; NH(4-Et-phenyl) = CCc1ccc(N*)cc1; NMeT = CN[C@H](C(=O)O)[C@@H](C)O; NH(4-Me-phenyl) = Cc1ccc(N*)cc1; aThr = C[C@H](O)[C@H](N)C(=O)O; Pip = O=C(O)[C@@H]1CCCCN1; CO = O=C([*:1])[*:2]

Key:
[1] = test system: Staphylococcus aureus, ATCC 29213; experiment: Minimal inhibitory concentration assay (microbroth dilution); format: cell-based; conditions: ATCC29213, read-out: Minimal Inhibitory Concentrations S. aureus ATCC 29213
Procedure, shortened: (§1)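 MIC is the lowest concentration stopping visible growth after overnight aerobic culture at 37 °C, per CLSI microbroth dilution (about 10^5 cfu/mL; two-fold series, top final 200 μM). ClpP-inactivated S. aureus USA 300 tested alongside parent strain to probe ClpP-mediated killing.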

[2] = test system: Staphylococcus aureus, NRS70; experiment: as above; format: cell-based
Procedure, shortened: as §1

[3] = test system: Bacillus subtilis, ATCC 23857; experiment: as above; format: cell-based
Procedure, shortened: as §1

[4] = test system: Streptococcus pyogenes, ATCC 700294; experiment: as above; format: cell-based
Procedure, shortened: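 Plates with two-fold compound dilution series in broth were incubated overnight, aerobically, at 37° C, following CLSI microdilution guidance.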

Sa-ClpP = target: T1, Sa-ClpP (Staphylococcus aureus, UniProt Q2G036); experiment: ADEP displacement fluorescence polarization assay (FP probe ADEP 2591); format: binding
T1 construct: made in house; host or cells: E. coli BL21(DE3)
T1 sequence (Q2G036 1-195): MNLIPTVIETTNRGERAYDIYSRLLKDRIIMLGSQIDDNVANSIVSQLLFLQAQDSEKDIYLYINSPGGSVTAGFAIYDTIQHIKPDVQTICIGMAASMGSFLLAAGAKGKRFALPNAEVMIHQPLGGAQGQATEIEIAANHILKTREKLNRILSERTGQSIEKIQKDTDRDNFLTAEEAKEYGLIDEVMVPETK
Procedure, shortened: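 Probe displacement was measured in mP after compounds sat 120 min at room temperature with pre-equilibrated (1 h) Sa-ClpP (15 μM) and ADEP 2591 FP probe (50 nM) in pH 8.0 Tris-HCl with 2% DMSO. Data were scaled between DMSO and 200 μM ADEP 2378 and fit by variable-slope log-inhibitor regression.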

[5] = Staphylococcus aureus, NRS70; read-out: Minimal Inhibitory Concentrations S. aureus NRS70
[6] = Bacillus subtilis, ATCC23857; read-out: Minimal Inhibitory Concentrations B. subtilis ATCC 23857
[7] = Streptococcus pyogenes, ATCC700294; read-out: Minimal Inhibitory Concentrations S. pyogenes ATCC 700294

SMILES | MIC [1] | MIC [2, 5] | MIC [3, 6] | MIC [4, 7] | IC50 (Sa-ClpP) | IC50 (Sa-ClpP; displacement of FP probe ADEP 2591 from Sa-ClpP, read-out: ADEP Displacement IC50) | MIC ([2]; Staphylococcus aureus, NRS70, read-out: Minimal Inhibitory Concentrations S. aureus NRS70) | MIC ([3]; Bacillus subtilis, ATCC23857, read-out: Minimal Inhibitory Concentrations B. subtilis ATCC 23857) | MIC ([4]; Streptococcus pyogenes, ATCC700294, read-out: Minimal Inhibitory Concentrations S. pyogenes ATCC 700294)
CCc1ccc(NC(=O)N[C@@H](Cc2cc(F)cc(F)c2)C(=O)N[C@@H]2C(=O)N3C[C@H](O)C[C@H]3C(=O)N3CCCC[C@H]3C(=O)N[C@@H](C)C(=O)N3C[C@H](C)C[C@H]3C(=O)O[C@H]2C)cc1 [Compound 211, (S)-3-(3,5-difluorophenyl)-2-(3-(4-ethylphenyl)ureido)-N-((2R,6S,8aS,14aS,16R,20S,21S,23aS)-16-hydroxy-2,6,21-trimethyl-5,8,14,19,23-pentaoxooctadecahydro-1H,5H,14H,19H-pyrido[2,1-i]dipyrrolo[2,1-c:2′,1′-l][1]oxa[4,7,10,13]tetraazacyclohexadecin-20-yl)propanamide] ({NH(4-Et-phenyl)-CO}-[Phe(3,5-F2)][aThr][Hyp][Pip]A[Pro(4R-Me)]; ester 2-C) | 0.04 µM (≈ 0.0335 µg/mL) | 0.02 µM (≈ 0.0168 µg/mL) | 0.8 µM (≈ 0.67 µg/mL) | < 0.2 µM | 6.8 ± 0.3 µM |  |  |  | 
CCc1ccc(NC(=O)N[C@@H](Cc2cc(F)cc(F)c2)C(=O)N[C@@H]2C(=O)N3CCC[C@H]3C(=O)N(C)[C@@H]([C@@H](C)O)C(=O)N[C@@H](C)C(=O)N3C[C@@H](C)C[C@H]3C(=O)O[C@H]2C)cc1 [Compound 37, (S)-3-(3,5-difluorophenyl)-2-(3-(4-ethylphenyl)ureido)-N-((2S,6S,9S,11aS,17S,18S,20aS)-9-((R)-1-hydroxyethyl)-2,6,10,18-tetramethyl-5,8,11,16,20-pentaoxohexadecahydro-1H,5H,16H-dipyrrolo[2,1-c:2′,1′-l][1]oxa[4,7,10,13]tetraazacyclohexadecin-17-yl)propanamide] ({NH(4-Et-phenyl)-CO}-[Phe(3,5-F2)][aThr]P[NMeT]A[Pro(4S-Me)]; ester 2-C) | 0.1 µM (≈ 0.0826 µg/mL) | 0.1 µM (≈ 0.0826 µg/mL) | 0.05 µM (≈ 0.0413 µg/mL) | 0.1 µM (≈ 0.0826 µg/mL) | 7 ± 0.4 µM |  |  |  | 
C[C@H]1C[C@H]2C(=O)O[C@@H](C)[C@H](NC(=O)[C@H](Cc3cc(F)cc(F)c3)NC(=O)Nc3ccc(OC(F)(F)F)cc3)C(=O)N3CCC[C@H]3C(=O)N3CCOC[C@H]3C(=O)N[C@@H](C)C(=O)N2C1 [Compound 201, (S)-3-(3,5-difluorophenyl)-2-(3-(4-(trifluoromethoxy)phenyl)ureido)-N-((6aS,12S,13S,15aS,17S,21S,23aS)-13,17,21-trimethyl-6,11,15,20,23-pentaoxooctadecahydro-6H,11H,15H-[1,4]oxazino[3,4-i]dipyrrolo[2,1-c:2′,1′-l][1]oxa[4,7,10,13]tetraazacyclohexadecin-12-yl)propanamide] ({NH(4-OCF3-phenyl)-CO}-[Phe(3,5-F2)][aThr]P[Morpholine(3S-CO)]A[Pro(4S-Me)]; ester 2-C) | 0.049 µM (≈ 0.0431 µg/mL) | 0.024 µM (≈ 0.0211 µg/mL) | 0.024 µM (≈ 0.0211 µg/mL) | 0.098 µM (≈ 0.0862 µg/mL) |  | 6.1 ± 0.4 µM |  |  | 
Cc1ccc(NC(=O)N[C@@H](Cc2cc(F)cc(F)c2)C(=O)N[C@@H]2C(=O)N3CCC[C@H]3C(=O)N(C)[C@@H]([C@@H](C)OP(=O)(O)O)C(=O)N[C@@H](C)C(=O)N3C[C@@H](C)C[C@H]3C(=O)O[C@H]2C)cc1 [Compound 188, (R)-1-((2S,6S,9S,11aS,17S,18S,20aS)-17-((S)-3-(3,5-difluorophenyl)-2-(3-(p-tolyl)ureido)propanamido)-2,6,10,18-tetramethyl-5,8,11,16,20-pentaoxohexadecahydro-1H,5H,16H-dipyrrolo[2,1-c:2′,1′-l][1]oxa[4,7,10,13]tetraazacyclohexadecin-9-yl)ethyl dihydrogen phosphate] ({NH(4-Me-phenyl)-CO}-[Phe(3,5-F2)][aThr]P[NMepT]A[Pro(4S-Me)]; ester 2-C) | 25 µM |  |  |  | 13.7 ± 0.6 µM |  | 25 µM | 13 µM | 50 µM
